This assay concerns the target T1, human Kv4.3 (Homo sapiens, UniProt Q9UK17).
T1 construct: expressed in transfected cells; host or cells: transgenic C. elegans strain UG1755 (plasmid pGV8 integrated; expression in the pharynx)
T1 sequence (Q9UK17 1-655): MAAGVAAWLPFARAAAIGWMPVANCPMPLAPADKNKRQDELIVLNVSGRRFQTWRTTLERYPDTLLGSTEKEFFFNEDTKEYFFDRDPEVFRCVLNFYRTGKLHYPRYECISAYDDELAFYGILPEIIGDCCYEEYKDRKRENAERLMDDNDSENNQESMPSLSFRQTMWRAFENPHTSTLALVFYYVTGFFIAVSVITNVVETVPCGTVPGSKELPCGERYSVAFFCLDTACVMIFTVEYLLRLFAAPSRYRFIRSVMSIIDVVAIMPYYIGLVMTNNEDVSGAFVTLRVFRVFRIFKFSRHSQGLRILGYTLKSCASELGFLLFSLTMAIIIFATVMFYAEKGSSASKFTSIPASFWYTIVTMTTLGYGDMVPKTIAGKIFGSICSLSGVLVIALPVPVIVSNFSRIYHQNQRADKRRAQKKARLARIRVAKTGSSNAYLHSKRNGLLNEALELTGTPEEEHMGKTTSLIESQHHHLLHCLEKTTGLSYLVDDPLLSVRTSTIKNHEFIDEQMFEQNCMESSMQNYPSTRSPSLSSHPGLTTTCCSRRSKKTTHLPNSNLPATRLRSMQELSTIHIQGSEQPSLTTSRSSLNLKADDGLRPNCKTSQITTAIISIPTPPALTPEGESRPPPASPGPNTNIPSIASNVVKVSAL
Nature of the assay: Electropharyngeogram (EPG) analysis of dissected pharynxes of transgenic C. elegans strain UG1755. In kind it is ex vivo, transgenic C. elegans expressing human Kv4.3. As for the experimental part:
The method to describe the construction of a transgenic C. elegans strain expressing human Kv4.3 has been described in WO 03/097682. Briefly, the actual used strain UG1755 has been generated by microinjection into the gonad of a wild-type strain N2 with a mix of 5 ng/μl plasmid pGV8 (human Kv4.3), 20 ng/μl pDW2821 (GFP-marker) and 40 ng/μl genomic C. elegans DNA. Transgenic animals have been isolated and submitted to integration of the extra-chromosomal array into the genome of C. elegans. A line with 50% transmission of the functional expressed human Kv4.3 has been mutagenized with gamma irradiation using a Cobalt source. About 12000 F2 animals have been singled out and their progeny has been screened for the 100% transmission of the GFP marker. Lines with 100% transmission of GFP have been considered as potentially integrated. These lines have been further tested and out-crossed with N2 strain two-times. All lines obtained have been tested for viability, GFP and human Kv4.3 expression. At the end of a selection process, UG1755 was identified as most suitable C. elegans strain amenable to high throughput screening (HTS). […] Briefly, dissected pharynxes of UG1755 C. elegans animals have been prepared and Electropharyngeograms (EPGs) have been recorded using an Axopatch-1D amplifier (Axon instruments). […] The number of ultra short EPGs (10-20 ms) and normal EPGs (100-200 ms) has been analyzed and given as ratio in percentage. […] In addition standard qRT-PCR confirmed the presence of the human Kv4.3 transgene in UG1755 as well as human Kv4.3 protein has been detected with the human Kv4.3 antibody P 0358 in the pharynx of UG1755 animals.
Introducing the human Kv4.3 channel into the C. elegans pharynx influences the C. elegans action potential in a characteristic fashion. […] The pumping end-point can be technically translated into a high-throughput read-out by the use of a pro-fluorescent dye. […] After a defined incubation period, the change of fluorescence intensity in the intestine can be measured with a plate reader.

On to `O=C(NCC1CCCCN1)c1cc(OCC(F)(F)F)ccc1OCC(F)(F)F` (stereo not drawn) [Flecainide], for which the “ultra short action potentials of the human Kv4.3 transgenic C. elegans pharynx (result in words)” value is listed as “restored to normal action potentials”. Besides, the “After Application of Compound Ratio Ultra short to Normal EPGs in %” value (strain UG1755, 100 μM, n = 15, before application 83 ± 13) worked out at 53 ± 24%.

For the compound `Nc1ccncc1` [4-aminopyridine], the “ultra short action potentials of the human Kv4.3 transgenic C. elegans pharynx (result in words)” value was “restored to normal action potentials”.

For the origin of these results see patent US20080039442A1, “Compounds With Kv4 Ion Channel Activity” (Devgen NV, priority 2004, published 2008).
